Experiments:
[1] = tested on: MCF-7 (breast cancer) cell line; experiment: Mitogenic (MTT) assay, antiproliferative effect in MCF-7 cells; assay type: cell-based
Procedure: The cell culture experiments were carried out in MCF-7 (breast cancer) cell line purchased from American Type Culture Collection (ATCC, Manassas, Va.) were grown in RPMI 1640 medium (Himedia Laboratories Pvt. Ltd., Mumbai, India) supplemented with 10% fetal bovine serum (Himedia Laboratories Pvt. Ltd., Mumbai, India) and 100 μg/ml penicillin G and 100 μg/ml streptomycin (Gibco BRL, Grand island, NY) at 37° C. in a humidified and 5% CO2 atmosphere (Hera Cell, Thermo Scientific, Waltham, Mass.).
(§1) To find out the cytotoxicity of the anticancer drugs, mitogenic assay was carried out. The MCF-7 cells were seeded at 5,000 per well in 96 well plate (Corning, N.Y., USA) and kept in the incubator for 24 hours for better cell attachment. […] Glyceryl monooleate (GMO) Magnetic nanoparticles (MNPs) without drug and medium were used as respective controls. The medium was changed on 2nd and 4th days following the drug treatment; no further dose of drug was added. Viability of the cells was determined at 5th day. After the specified incubation time, 10 μl MTT (Sigma) was added, and the plates were incubated for 3 hours at 37° C. in a cell culture incubator (Hera Cell, Thermo Scientific, Waltham, Mass.), following which the intracellular formazan crystals were solubilized in dimethyl sulfoxide and the color intensity was measured at 540 nm using a microplate reader (Synergy HT, BioTek Instruments, Inc., Winooski, Vt.). The antiproliferative effect of different treatments was calculated as a percentage of cell growth with respect to respective controls.
The cell culture experiments were carried out in MCF-7 (breast cancer) cell line purchased from American Type Culture Collection (ATCC, Manassas, Va.) were grown in RPMI 1640 medium (Himedia Laboratories PVT. LTD., Mumbai, India) supplemented with 10% fetal bovine serum (Himedia Laboratories Pvt. Ltd., Mumbai, India) and 100 μg/ml penicillin G and 100 μg/ml streptomycin (Gibco BRL, Grand island, NY) at 37° C. in a humidified and 5% CO2— atmosphere (Hera Cell, Thermo Scientific, Waltham, Mass.).
as §1, with “GMO-MNPs” for “Glyceryl monooleate (GMO) Magnetic nanoparticles (MNPs)”

[2] = higher doses; cited from earlier work
human erythrocytes = conditions: pluronic used as emulsifying agent for amphotericin-B; cited from earlier work
[3] = MCF-7, MTT day 5, highest concentration of the range (1000 ng/ml, printed for paclitaxel)
[4] = MCF-7, MTT day 5, lowest concentration of the range (1 ng/ml, printed for paclitaxel)

CC(=O)O[C@H]1C(=O)[C@@]2(C)[C@H]([C@H](OC(=O)c3ccccc3)[C@]3(O)C[C@H](OC(=O)[C@H](O)[C@@H](NC(=O)c4ccccc4)c4ccccc4)C(C)=C1C3(C)C)[C@]1(OC(C)=O)CO[C@@H]1C[C@@H]2O [paclitaxel, Paclitaxel]
cell viability percentage [1, 3]: about 30% | cell viability percentage [1, 4]: 95%

CO[C@H]1C[C@@H]2CC[C@@H](C)[C@@](O)(O2)C(=O)C(=O)N2CCCC[C@H]2C(=O)O[C@H]([C@H](C)C[C@@H]2CC[C@@H](O)[C@H](OC)C2)CC(=O)[C@H](C)/C=C(\C)[C@@H](O)[C@@H](OC)C(=O)[C@H](C)C[C@H](C)/C=C/C=C/C=C/1C [rapamycin]
IC50 ([1]; Homo sapiens, MCF7, 120 h, MCF-7 cells, MTT assay on day 5, medium changed on days 2 and 4): 0.0588 µg/mL | cell viability percentage [1, 3]: 37% | cell viability percentage [1, 4]: 65%

Pluronic F-127
effect on cholesterol and triglycerides in the blood plasma [2]: elevation of cholesterol and triglycerides in the blood plasma | concentration with detectable cell lysis of human erythrocytes (human erythrocytes): 16000 ng/mL
